Results published in patent US20130053358A1, “TRANSDERMALLY ABSORBABLE DONEPEZIL-CONTAINING PREPARATION” (HISAMITSU PHARMACEUTICAL CO., INC., priority 2010, published 2013).
Counter-ions that a name gives are not always drawn.

System: human normal epidermal cells
Experiment: Production of skin irritation mediators in human three-dimensional epidermal culture model (LabCyte EPI-MODEL), ELISA
Assay type: cell-based
Excerpt: There was used a human three-dimensional epidermal culture model in which human normal epidermal cells were multilayer-cultured (LabCyte EPI-MODEL, Japan Tissue Engineering Co., Ltd.). LabCyte is a cultured skin cultured in a transwell. For the experiment, LabCyte was used with the transwell.
A cholesterol (Wako Pure Chemical Industries, Ltd.) was used as a test article. Donepezil hydrochloride was used as the drug. Olive oil (Wako Pure Chemical Industries, Ltd.) was used as a vehicle.
Tests were conducted by the following group composition. • Drug Alone Group: A group with addition of 4×10^−4 M of donepezil hydrochloride alone dispersed in a vehicle, as a test solution. • Cholesterol Addition Group: A group with addition of 4×10^−4 M of donepezil hydrochloride and 1% by mass of cholesterol which were dispersed in a vehicle, as a test solution.
The test solutions of each group were added to the cells, the culture after being incubated for 48 hours were collected, and the production amounts of skin irritation mediators were measured. PGE2, IL-1α, IL-6 and IL-8 were measured as the skin irritation mediators. The skin irritation mediators were measured by using a commercially available ELISA kit (R&D Systems, Inc.). The relative production amount of the skin irritation mediator in the Cholesterol Addition Group was calculated as below, when the production amount of the skin irritation mediators in Drug Alone Group was set to 100.
Relative production amount=(production amount of the mediator in Cholesterol Addition Group)/(production amount of the mediator in Drug Alone Group)×100

[1] = 4×10^−4 M donepezil hydrochloride + 1% by mass cholesterol in olive oil, 48 hours incubation

COc1cc2c(cc1OC)C(=O)C(CC1CCN(Cc3ccccc3)CC1)C2 (centres unmarked) [Donepezil hydrochloride, 2-[(1-benzyl-4-piperidinyl)methyl]-5,6-dimethoxyindane-1-on]
relative production amount of skin irritation mediator IL-1α (drug alone group set to 100) [1]: 0
relative production amount of skin irritation mediator IL-6 (drug alone group set to 100) [1]: 85
relative production amount of skin irritation mediator IL-8 (drug alone group set to 100) [1]: 59
relative production amount of skin irritation mediator PGE2 (drug alone group set to 100) [1]: 33

CC(C)CCC[C@@H](C)[C@H]1CC[C@H]2[C@@H]3CC=C4C[C@@H](O)CC[C@]4(C)[C@H]3CC[C@]12C [cholesterol, (3β)-cholest-5-en-3-olcholest-5-en-3β-ol]
effect on production amounts of skin irritation mediators by donepezil hydrochloride (1% by mass cholesterol added to 4×10^−4 M donepezil hydrochloride, 48 hours): effects of decreasing the production amounts of skin irritation mediators
